Measured values: the supplement of paper PMC13380429

How the values were obtained:
Conditions in all cases: 72 h
Calu-3 [1] = assay: relative viability EC50 (midpoint between 100% and the lowest measured viability); higher = less toxic
Vero E6 [2] = assay: as above
U2OS [3] = assay: as above
HepG2 [4] = assay: as above
Caco-2 [5] = assay: as above
Calu-3 [6] = assay: drug sensitivity score (DSS) for viability; higher = more toxic; extreme values may be limits of the assay
Vero E6 [7] = assay: as above
U2OS [8] = assay: as above
HepG2 [9] = assay: as above
Caco-2 [10] = assay: as above
Calu-3 [11] = assay: cell viability relative to DMSO; higher = less toxic
Vero E6 [12] = assay: as above
U2OS [13] = assay: as above
HepG2 [14] = assay: as above
Caco-2 [15] = assay: as above

SMILES	relative viability EC50 (Calu-3 [1])	relative viability EC50 (Vero E6 [2])	relative viability EC50 (U2OS [3])	relative viability EC50 (HepG2 [4])	relative viability EC50 (Caco-2 [5])	drug sensitivity score (Calu-3 [6])	drug sensitivity score (Vero E6 [7])	drug sensitivity score (U2OS [8])	drug sensitivity score (HepG2 [9])	drug sensitivity score (Caco-2 [10])	cell viability (Calu-3 [11]; 1 nM)	cell viability (Calu-3 [11]; 10 nM)	cell viability (Calu-3 [11]; 100 nM)	cell viability (Calu-3 [11]; 1000 nM)	cell viability (Calu-3 [11]; 10000 nM)	cell viability (Vero E6 [12]; 1 nM)	cell viability (Vero E6 [12]; 10 nM)	cell viability (Vero E6 [12]; 100 nM)	cell viability (Vero E6 [12]; 1000 nM)	cell viability (Vero E6 [12]; 10000 nM)	cell viability (U2OS [13]; 1 nM)	cell viability (U2OS [13]; 10 nM)	cell viability (U2OS [13]; 100 nM)	cell viability (U2OS [13]; 1000 nM)	cell viability (U2OS [13]; 10000 nM)	cell viability (HepG2 [14]; 1 nM)	cell viability (HepG2 [14]; 10 nM)	cell viability (HepG2 [14]; 100 nM)	cell viability (HepG2 [14]; 1000 nM)	cell viability (HepG2 [14]; 10000 nM)	cell viability (Caco-2 [15]; 1 nM)	cell viability (Caco-2 [15]; 10 nM)	cell viability (Caco-2 [15]; 100 nM)	cell viability (Caco-2 [15]; 1000 nM)	cell viability (Caco-2 [15]; 10000 nM)
Nc1ncc(Cc2ccc(Br)cc2)s1	> 10 µM	> 10 µM	> 10 µM	> 10 µM	> 10 µM	0	0	0	0	0	95.6%	91.8%	103%	94.3%	119%	99.9%	94%	100%	92.2%	107%	93.5%	102%	94.9%	101%	102%	98%	88.6%	115%	96.3%	99.9%	97.3%	95.1%	85.2%	99.3%	96.7%
COc1ccc(C(Cl)=C(c2ccc(OC)cc2)c2ccc(OC)cc2)cc1 [chlorotrianisene]	> 10 µM	> 10 µM	> 10 µM	> 10 µM	> 10 µM	0	0	0	0	0	98.5%	95.9%	104%	83.6%	99.9%	93.8%	103%	91.8%	99.5%	106%	95.5%	97.8%	101%	102%	93.6%	98.5%	94.9%	93.6%	111%	101%	98.5%	97.5%	98%	104%	102%
Oc1ccc2ccccc2c1SSc1c(O)ccc2ccccc12 [IPA-3]	> 10 µM	> 10 µM	> 10 µM	> 10 µM	> 10 µM	0	0	0	0	0	96.3%	109%	99.8%	107%	111%	99.7%	101%	102%	102%	95.8%	93.2%	96.6%	97.6%	98.3%	92.9%	104%	109%	89.2%	106%	103%	98.9%	94.9%	91%	95.7%	92.9%
NCC(CC(=O)O)c1ccccc1 (stereo not given) [fenigam]	> 10 µM	> 10 µM	> 10 µM	> 10 µM	> 10 µM	0	0	0	0	0	95.4%	97.6%	100%	97.4%	97.4%	100%	95.8%	97.6%	101%	111%	93.5%	91.1%	97.3%	95.4%	98.3%	95.1%	97.2%	92.4%	106%	110%	93.3%	105%	101%	87.8%	112%
Clc1ccc2c(c1)CCc1cccnc1C2=C1CCNCC1 [desloratadine]	> 10 µM	> 10 µM	> 10 µM	> 10 µM	> 10 µM	0	0	0	0	0	99.9%	100%	110%	104%	106%	104%	102%	104%	106%	99.9%	100%	98.9%	97.3%	104%	95.6%	113%	90.7%	97.2%	110%	93.1%	91.2%	93.5%	94.7%	90.2%	102%
Cc1cccc(C)c1OCC(=O)N[C@@H](Cc1ccccc1)[C@@H](O)C[C@H](Cc1ccccc1)NC(=O)[C@H](C(C)C)N1CCCNC1=O [lopinavir]	> 10 µM	> 10 µM	> 10 µM	> 10 µM	> 10 µM	0	0	0	0.1	0.7	103%	90.1%	97.3%	102%	104%	103%	99.1%	104%	101%	110%	101%	107%	100%	101%	93.3%	107%	106%	108%	104%	86.5%	90.9%	102%	102%	93.9%	84.8%
Cc1c(C(=O)NN2CCCCC2)nn(-c2ccc(Cl)cc2Cl)c1-c1ccc(Cl)cc1 [rimonabant]	> 10 µM	> 10 µM	> 10 µM	> 10 µM	> 10 µM	0	0	0	0	0.8	101%	93.6%	89.1%	96.8%	99.2%	92.4%	95%	88%	93.5%	101%	95.6%	95.8%	98.1%	95.4%	92.7%	97.6%	94.1%	105%	103%	88.3%	98.7%	91.3%	97.7%	90.5%	81.1%
